Assay results taken from patent US7632972B2, “Compounds and methods for treatment of cancer and modulation of programmed cell death for melanoma and other cancer cells” (The Board of Trustees of the University of Illionis, priority 2003, dated 2009).

What was measured:
Assay type in all cases: cell-based, human
NCI/ADR-RES = test: NCI 60 cell line screen (SRB), Breast Cancer
From the text: (§1) The operation of this screen utilizes 60 different human tumor cell lines, representing leukemia, melanoma and cancers of the lung, colon, brain, ovary, breast, prostate, and kidney. The aim is to prioritize for further evaluation, synthetic compounds or natural product samples showing selective growth inhibition or cell killing of particular tumor cell lines. This screen is unique in that the complexity of a 60 cell line dose response produced by a given compound results in a biological response pattern which can be utilized in pattern recognition algorithms. Using these algorithms, it is possible to assign a putative mechanism of action to a test compound, or to determine that the response pattern is unique and not similar to that of any of the standard prototype compounds included in the NCl database (see DTP Overview tab). In addition, following characterization of various cellular molecular targets in the 60 cell lines, it may be possible to select compounds most likely to interact with a specific molecular target.
(§2) The human tumor cell lines of the cancer screening panel are grown in RPMI 1640 medium containing 5% fetal bovine serum and 2 mM L-glutamine. For a typical screening experiment, cells are inoculated into 96 well microtiter plates in 100 μL at plating densities ranging from 5,000 to 40,000 cells/well depending on the doubling time of individual cell lines. After cell inoculation, the microtiter plates are incubated at 37° C., 5% CO2, 95% air and 100% relative humidity for 24 h prior to addition of experimental drugs.
(§3) After 24 h, two plates of each cell line are fixed in situ with TCA, to represent a measurement of the cell population for each cell line at the time of drug addition (Tz). Experimental drugs are solubilized in dimethyl sulfoxide at 400-fold the desired final maximum test concentration and stored frozen prior to use. At the time of drug addition, an aliquot of frozen concentrate is thawed and diluted to twice the desired final maximum test concentration with complete medium containing 50 μg/ml gentamicin. Additional four, 10-fold or ½ log serial dilutions are made to provide a total of five drug concentrations plus control. Aliquots of 100 μl of these different drug dilutions are added to the appropriate microtiter wells already containing 100 μl of medium, resulting in the required final drug concentrations.
(§4) Following drug addition, the plates are incubated for an additional 48 h at 37° C., 5% CO2, 95% air, and 100% relative humidity. For adherent cells, the assay is terminated by the addition of cold TCA. Cells are fixed in situ by the gentle addition of 50 μl of cold 50% (w/v) TCA (final concentration, 10% TCA) and incubated for 60 minutes at 4° C. The supernatant is discarded, and the plates are washed five times with tap water and air dried. Sulforhodamine B (SRB) solution (100 μl) at 0.4% (w/v) in 1% acetic acid is added to each well, and plates are incubated for 10 minutes at room temperature. After staining, unbound dye is removed by washing five times with 1% acetic acid and the plates are air dried. Bound stain is subsequently solubilized with 10 mM trizma base, and the absorbance is read on an automated plate reader at a wavelength of 515 nm. For suspension cells, the methodology is the same except that the assay is terminated by fixing settled cells at the bottom of the wells by gently adding 50 μl of 80% TCA (final concentration, 16% TCA). Using the seven absorbance measurements [time zero, (Tz), control growth, (C), and test growth in the presence of drug at the five concentration levels (Ti)], the percentage growth is calculated at each of the drug concentrations levels. Percentage growth inhibition is calculated as: [(Ti−Tz)/(C−Tz)]×100 for concentrations for which Ti>/=Tz [(Ti−Tz)/Tz]×100 for concentrations for which Ti<Tz.
(§5) Three dose response parameters are calculated for each experimental agent. […]

BT-549 = test: NCI 60 cell line screen (SRB), Breast Cancer
From the text: as §1, §2, §3, §4, §5

PC-3 = test: NCI 60 cell line screen (SRB), Prostate Cancer
From the text: as §1, §2, §3, §4, §5

DU-145 = test: NCI 60 cell line screen (SRB), Prostate Cancer
From the text: as §1, §2, §3, §4, §5

U251 = test: NCI 60 cell line screen (SRB), CNS Cancer
From the text: as §1, §2, §3, §4, §5

SF-295 = test: NCI 60 cell line screen (SRB), CNS Cancer
From the text: as §1, §2, §3, §4, §5

SNB-19 = test: NCI 60 cell line screen (SRB), CNS Cancer
From the text: as §1, §2, §3, §4, §5

SF-268 = test: NCI 60 cell line screen (SRB), CNS Cancer
From the text: as §1, §2, §3, §4, §5

SNB-75 = test: NCI 60 cell line screen (SRB), CNS Cancer
From the text: as §1, §2, §3, §4, §5

COc1cccc(CCNC(=O)CC(c2ccccc2)(c2ccccc2)c2ccccc2)c1 [Compound Z3] was tested, and the GI50 (NCI/ADR-RES) was 5.26 µM, the TGI (NCI/ADR-RES) was >1.00E−04 and the “Percent Growth” value (NCI/ADR-RES; Log10 Concentration −4.0) was 27%. The “Percent Growth” value (NCI/ADR-RES; Log10 Concentration −5.0) was 42%, the “Percent Growth” value (NCI/ADR-RES; Log10 Concentration −6.0) was 69% and the “Percent Growth” value (NCI/ADR-RES; Log10 Concentration −7.0) was 93%. For the same compound, the “Percent Growth” value (NCI/ADR-RES; Log10 Concentration −8.0) was 69%, the CC50 (NCI/ADR-RES; read-out: LC50 (the source's name)) was > 100 µM and the GI50 (BT-549; BT-549) was > 100 µM. For the same compound, the TGI (BT-549; BT-549) was >1.00E−04, the “Percent Growth” value (BT-549; BT-549, Log10 Concentration −4.0) was 69% and the “Percent Growth” value (BT-549; BT-549, Log10 Concentration −5.0) was 81%. For the same compound, the “Percent Growth” value (BT-549; BT-549, Log10 Concentration −6.0) was 107%, the “Percent Growth” value (BT-549; BT-549, Log10 Concentration −7.0) was 126% and the “Percent Growth” value (BT-549; BT-549, Log10 Concentration −8.0) was 100%. For the same compound, the CC50 (BT-549; BT-549, read-out: LC50 (the source's name)) was > 100 µM, the GI50 (PC-3; PC-3) was 6.12 µM and the TGI (PC-3; PC-3) was >1.00E−04. The “Percent Growth” value (PC-3; PC-3, Log10 Concentration −4.0) was 12%, the “Percent Growth” value (PC-3; PC-3, Log10 Concentration −5.0) was 39% and the “Percent Growth” value (PC-3; PC-3, Log10 Concentration −6.0) was 90%. For the same compound, the “Percent Growth” value (PC-3; PC-3, Log10 Concentration −7.0) was 96%, the “Percent Growth” value (PC-3; PC-3, Log10 Concentration −8.0) was 100% and the CC50 (PC-3; PC-3, read-out: LC50 (the source's name)) was > 100 µM. For the same compound, the GI50 (DU-145; DU-145) was 26.8 µM, the TGI (DU-145; DU-145) was >1.00E−04 and the “Percent Growth” value (DU-145; DU-145, Log10 Concentration −4.0) was 31%. For the same compound, the “Percent Growth” value (DU-145; DU-145, Log10 Concentration −5.0) was 64%, the “Percent Growth” value (DU-145; DU-145, Log10 Concentration −6.0) was 88% and the “Percent Growth” value (DU-145; DU-145, Log10 Concentration −7.0) was 93%. The “Percent Growth” value (DU-145; DU-145, Log10 Concentration −8.0) was 88%, the CC50 (DU-145; DU-145, read-out: LC50 (the source's name)) was > 100 µM and the GI50 (U251; U251) was 4.85 µM. For the same compound, the TGI (U251; U251) was 5.56E−05, the “Percent Growth” value (U251; U251, Log10 Concentration −4.0) was −10% and the “Percent Growth” value (U251; U251, Log10 Concentration −5.0) was 29%. For the same compound, the “Percent Growth” value (U251; U251, Log10 Concentration −6.0) was 96%, the “Percent Growth” value (U251; U251, Log10 Concentration −7.0) was 107% and the “Percent Growth” value (U251; U251, Log10 Concentration −8.0) was 99%. The CC50 (U251; U251, read-out: LC50 (the source's name)) was > 100 µM, the GI50 (SF-295; SF-295) was 4.36 µM and the TGI (SF-295; SF-295) was >1.00E−04. For the same compound, the “Percent Growth” value (SF-295; SF-295, Log10 Concentration −4.0) was 15%, the “Percent Growth” value (SF-295; SF-295, Log10 Concentration −5.0) was 27% and the “Percent Growth” value (SF-295; SF-295, Log10 Concentration −6.0) was 91%. For the same compound, the “Percent Growth” value (SF-295; SF-295, Log10 Concentration −7.0) was 113%, the “Percent Growth” value (SF-295; SF-295, Log10 Concentration −8.0) was 100% and the CC50 (SF-295; SF-295, read-out: LC50 (the source's name)) was > 100 µM. For the same compound, the GI50 (SNB-19; SNB-19) was 90.1 µM, the TGI (SNB-19; SNB-19) was >1.00E−04 and the “Percent Growth” value (SNB-19; SNB-19, Log10 Concentration −4.0) was 48%. The “Percent Growth” value (SNB-19; SNB-19, Log10 Concentration −5.0) was 92%, the “Percent Growth” value (SNB-19; SNB-19, Log10 Concentration −6.0) was 92% and the “Percent Growth” value (SNB-19; SNB-19, Log10 Concentration −7.0) was 107%. For the same compound, the “Percent Growth” value (SNB-19; SNB-19, Log10 Concentration −8.0) was 97%, the CC50 (SNB-19; SNB-19, read-out: LC50 (the source's name)) was > 100 µM and the GI50 (SF-268; SF-268) was 15 µM. The TGI (SF-268; SF-268) was >1.00E−04, the “Percent Growth” value (SF-268; SF-268, Log10 Concentration −4.0) was 38% and the “Percent Growth” value (SF-268; SF-268, Log10 Concentration −5.0) was 53%. For the same compound, the “Percent Growth” value (SF-268; SF-268, Log10 Concentration −6.0) was 87%, the “Percent Growth” value (SF-268; SF-268, Log10 Concentration −7.0) was 97% and the “Percent Growth” value (SF-268; SF-268, Log10 Concentration −8.0) was 90%. For the same compound, the CC50 (SF-268; SF-268, read-out: LC50 (the source's name)) was > 100 µM, the GI50 (SNB-75; SNB-75) was > 100 µM and the TGI (SNB-75; SNB-75) was >1.00E−04. For the same compound, the “Percent Growth” value (SNB-75; SNB-75, Log10 Concentration −4.0) was 96%, the “Percent Growth” value (SNB-75; SNB-75, Log10 Concentration −5.0) was 118% and the “Percent Growth” value (SNB-75; SNB-75, Log10 Concentration −6.0) was 113%. For the same compound, the “Percent Growth” value (SNB-75; SNB-75, Log10 Concentration −7.0) was 117%, the “Percent Growth” value (SNB-75; SNB-75, Log10 Concentration −8.0) was 94% and the CC50 (SNB-75; SNB-75, read-out: LC50 (the source's name)) was > 100 µM.
